In patent US20230348362A1, “LIPID COMPOUNDS AND LIPID NANOPARTICLE COMPOSITIONS” (Suzhou Abogen Biosciences Co., Ltd., priority 2021, published 2023):
Read-outs that look alike come from different tables or passages of the source.

Columns and labels:
[1] = Encapsulation efficiency of lipid nanoparticles, Quant-it Ribogreen RNA assay; format: physicochemical; conditions: LNP of lipid/DSPC/cholesterol/PEG-lipid 50:10:38.5:1.5 encapsulating hEPO mRNA
Method in brief: (§1)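 LNPs made from ionizable lipid/DSPC/cholesterol/PEG-lipid (50:10:38.5:1.5) and mRNA in citrate pH 4 by microfluidic mixing, lipid:mRNA about 10:1–30:1 w/w, then dialysed into DPBS and filtered. Size and PDI measured by DLS in backscatter mode; encapsulation efficiency measured by RiboGreen assay.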

[2] = Lipid nanoparticle size and polydispersity by dynamic light scattering; format: physicochemical; conditions: LNP of lipid/DSPC/cholesterol/PEG-lipid 50:10:38.5:1.5 encapsulating hEPO mRNA
Method in brief: as §1

[3] = Lipid clearance study: lipid remaining in liver tissue by LC-MS/MS; conditions: ICR female mice, 0.5 mg/kg i.v. bolus dose mRNA
Method: (§2) LNPs were injected into mice via the tail vein (ICR female, IV, 0.5 mg mRNA/kg), then mice were anesthetized under carbon dioxide at different time (e.g., 6 h, 24 h, and 48 h) after administration and sacrificed via cardiac puncture. Liver tissue were collected immediately, and then washed by ice-cold saline. Liver samples were weighed and homogenized in ice water bath by adding pre-chilled 20% methanol-water (v/v) at 2˜8° C. with the ratio of 1:5 (w/v). The homogenized tissue samples were stored in −90˜−60° C. freezer prior to analysis.
(§3) Sample Processing. All liver tissue homogenate samples were allowed to thaw at room temperature. An aliquot of 50 μL of sample was added with 50 μL MgCl2 (2M), then added with ACN which contains of Verapamil, 5 ng·mL^−1 and Glibenclamide, 50 ng·mL^−1 and Diclofenac, 200 ng·mL^1 and Tolbutamide, 200 ng·mL^1 for protein precipitation, then centrifuged at 13000 rpm for 8 min. Then 100 μL of supernatant was added with 100 μL water, then vortexed well. An aliquot of 5 μL of the mixture was injected into the LC-MS/MS system.

[4] = Apparent pKa of LNP formulations, TNS fluorescence assay; format: physicochemical; conditions: LNP cationic lipid/DSPC/cholesterol/DMG-PEG 50/10/38.5/1.5 mol %
Method in brief: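 LNPs (cationic lipid/DSPC/cholesterol/DMG-PEG 50/10/38.5/1.5 mol %) diluted to 0.1 mg/mL total lipid in citrate/phosphate/borate/NaCl buffers spanning pH 3–9 with TNS. Fluorescence (ex 325, em 435 nm) read at room temperature; pKa taken as the pH at half-maximal intensity from sigmoidal fit.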

[5] = mouse, in vivo, iv, 0.5 mg/kg
Method: as §2, §3

Compound	Encapsulation Efficiency [1] [%]	polydispersity [2]	size (nm) [2] [nm]	% Dose Remaining in Liver Tissue ([3]; 6 h) [%]	% Dose Remaining in Liver Tissue ([3]; 24 h) [%]	% Dose Remaining in Liver Tissue ([3]; 48 h) [%]	Apparent Pka [4]	% Dose Remaining in Liver Tissue ([5]; 6 h) [%]	% Dose Remaining in Liver Tissue ([5]; 24 h) [%]	% Dose Remaining in Liver Tissue ([5]; 48 h) [%]
CCCCCCCCCCCOC(=O)CCCCCN(CCN(CCO)CCCCCC(=O)OCC(CCCCCCCC)CCCCCCCC)C1CCCCC1 [Compound 21]	92.3	0.042	81.93	94.55	67.66	24.38	6.361	–	–	–
CCCCC/C=C\C/C=C\CCCCCCCCC(CCCCCCCC/C=C\C/C=C\CCCCC)OC(=O)CCCN(C)C [MC3, dilinoleylmethyl-4-dimethylaminobutyrate]	–	–	–	–	–	–	–	69.39	61.63	52.47
CCCCCCCC(=O)OCC(CCCCN(CCO)CCN(CCCCC(COC(=O)CCCCCCC)COC(=O)CCCCCCC)C1CCC1)COC(=O)CCCCCCC [Compound 71]	89.25	0.091	65.56	1.34	0.00	0.00	6.489	–	–	–
CCCCCCCCC(CCCCCCCC)CNC(=O)CCCCCN1CCC(N(CCO)CCCCC(COC(=O)CCCCCCC)COC(=O)CCCCCCC)CC1 [Compound 218]	93.64	0.043	82.04	7.38	1.03	0.17	–	–	–	–
CCCCCCCCC(CCCCCCCC)COC(=O)CCCCCN(CCCCN(CCO)CCCCC(COC(=O)CCCCCCC)COC(=O)CCCCCCC)C1CCC1 [Compound 220]	94.84	0.15	94.56	7.87	1.98	0.52	–	–	–	–
CCCCCCCCC(CCCCCCCC)CC(=O)NCCCCCN(CCN(CCO)CCCCCOC(=O)CC(CCCCCCCC)CCCCCCCC)C1CCCCCC1 [Compound 74]	92.74	0.05	67.96	48.44	50.42	50.83	–	–	–	–
CCCCCCCCCCCOC(=O)CCCCCN(CCN(CCO)CCCCCOC(=O)N(CCCCCCCC)CCCCCCCC)C1CCCCC1 [Compound 99]	83.64	0.135	87.73	22.45	16.39	14.08	–	–	–	–
CCCCCCCCC(CCCCCCCC)CC(=O)NCCCCCN(CCN(CCO)CCCCCCOC(=O)C(CCCCCC)CCCCCCCC)C1CCC1 (stereo not drawn) [Compound 70]	91.32	0.005	126	–	–	–	6.732	–	–	–
CCCCCCCCC(CCCCCC)COC(=O)CCCCCN(CCCCN(CCO)CCCCC(COC(=O)CCCCCCC)COC(=O)CCCCCCC)C1CCCCCCC1 (stereo not drawn) [Compound 194]	84.59	0.15	102.1	–	–	–	6.705	–	–	–
CCCCCCCCC(CCCCCCCC)COC(=O)CCCCCN(CC)CCN(CCO)CCCCCC(=O)OCC(CCCCCCCC)CCCCCCCC [Compound 27]	95.20	0.118	57.08	–	–	–	6.858	–	–	–
CCCCCCCCC(CCCCCCCC)CC(=O)NCCCCCN(CCO)CCN(CCCCCNC(=O)CC(CCCCCCCC)CCCCCCCC)C1CCC1 [Compound 60]	91.7	0.039	59.89	–	–	–	6.761	–	–	–
